Assay results reported in ChEMBL document CHEMBL5303573, “Mapping human microbiome drug metabolism by gut bacteria and their genes” (Nature, 2019).

Tests used:
[1] = The drug is tested on Salmonella typhimurium strain: LT2 for biotransformation. The drug concentrations were measured before and after a 12-h incubation by liquid-chromatography-coupled mass spectrometry (LC–MS); settings: salmonella enterica subsp. enterica, 2 µM
[2] = (§1) The drug is tested on the gut metagenome community of MV08 with ENA study accession number: PRJEB31790 and ENA sample accession number: SAMEA5537489 for biotransformation. The drug concentrations were measured over 9 timepoints collected between 0 and 24 hours of incubation by liquid-chromatography-coupled mass spectrometry (LC–MS); assay type: ADME; design: dose 2 uM, timepoint 0, 1, 2, 4, 6, 8, 12, 18, 24 hours; settings: 2 µM
[3] = as §1, with “MV19” for “MV08”, “SAMEA5537500” for “SAMEA5537489”; assay type: ADME; design: dose 2 uM, timepoint 0, 1, 2, 4, 6, 8, 12, 18, 24 hours; settings: 2 µM
[4] = as §1, with “MV25” for “MV08”, “SAMEA5537506” for “SAMEA5537489”; assay type: ADME; design: dose 2 uM, timepoint 0, 1, 2, 4, 6, 8, 12, 18, 24 hours; settings: 2 µM
[5] = as §1, with “MV27” for “MV08”, “SAMEA5537508” for “SAMEA5537489”; assay type: ADME; design: dose 2 uM, timepoint 0, 1, 2, 4, 6, 8, 12, 18, 24 hours; settings: 2 µM
[6] = as §1, with “MV23” for “MV08”, “SAMEA5537504” for “SAMEA5537489”; assay type: ADME; design: dose 2 uM, timepoint 0, 1, 2, 4, 6, 8, 12, 18, 24 hours; settings: 2 µM
[7] = as §1, with “MV15” for “MV08”, “SAMEA5537496” for “SAMEA5537489”; assay type: ADME; design: dose 2 uM, timepoint 0, 1, 2, 4, 6, 8, 12, 18, 24 hours; settings: 2 µM
[8] = as §1, with “MV10” for “MV08”, “SAMEA5537491” for “SAMEA5537489”; assay type: ADME; design: dose 2 uM, timepoint 0, 1, 2, 4, 6, 8, 12, 18, 24 hours; settings: 2 µM
[9] = as §1, with “MV07” for “MV08”, “SAMEA5537488” for “SAMEA5537489”; assay type: ADME; design: dose 2 uM, timepoint 0, 1, 2, 4, 6, 8, 12, 18, 24 hours; settings: 2 µM
[10] = as §1, with “MV12” for “MV08”, “SAMEA5537493” for “SAMEA5537489”; assay type: ADME; design: dose 2 uM, timepoint 0, 1, 2, 4, 6, 8, 12, 18, 24 hours; settings: 2 µM
[11] = as §1, with “MV13” for “MV08”, “SAMEA5537494” for “SAMEA5537489”; assay type: ADME; design: dose 2 uM, timepoint 0, 1, 2, 4, 6, 8, 12, 18, 24 hours; settings: 2 µM
[12] = target: T1, SGNH hydrolase-type esterase domain-containing protein (Phocaeicola dorei, UniProt B6VTE7); assay: (§2) The drug is tested on Bacteroides dorei strain: DSM17855 for biotransformation. The drug concentrations were measured before and after a 12-h incubation by liquid-chromatography-coupled mass spectrometry (LC–MS); assay type: ADME; design: dose 2 uM; settings: 2 µM
T1 sequence (B6VTE7 whole entry): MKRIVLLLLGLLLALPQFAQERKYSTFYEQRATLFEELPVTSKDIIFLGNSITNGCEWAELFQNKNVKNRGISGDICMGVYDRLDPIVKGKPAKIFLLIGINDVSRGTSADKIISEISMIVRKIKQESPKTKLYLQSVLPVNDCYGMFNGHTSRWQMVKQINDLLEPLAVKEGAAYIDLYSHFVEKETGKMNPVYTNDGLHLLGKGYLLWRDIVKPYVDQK

[13] = target: T2, SGNH hydrolase-type esterase domain-containing protein (Phocaeicola dorei, UniProt B6W1J1); assay: as §2; assay type: ADME; design: dose 2 uM; settings: 2 µM
T2 sequence (B6W1J1 whole entry): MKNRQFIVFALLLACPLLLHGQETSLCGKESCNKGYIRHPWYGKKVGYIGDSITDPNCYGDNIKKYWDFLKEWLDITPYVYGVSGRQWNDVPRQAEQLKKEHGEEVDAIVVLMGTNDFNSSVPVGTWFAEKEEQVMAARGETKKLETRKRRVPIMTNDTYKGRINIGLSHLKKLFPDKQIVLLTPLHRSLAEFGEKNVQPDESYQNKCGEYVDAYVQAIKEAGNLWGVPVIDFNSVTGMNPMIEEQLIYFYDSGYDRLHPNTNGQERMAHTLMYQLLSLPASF

[14] = target: T3, SGNH hydrolase-type esterase domain-containing protein (Phocaeicola dorei, UniProt B6W293); assay: as §2; assay type: ADME; design: dose 2 uM; settings: 2 µM
T3 sequence (B6W293 whole entry): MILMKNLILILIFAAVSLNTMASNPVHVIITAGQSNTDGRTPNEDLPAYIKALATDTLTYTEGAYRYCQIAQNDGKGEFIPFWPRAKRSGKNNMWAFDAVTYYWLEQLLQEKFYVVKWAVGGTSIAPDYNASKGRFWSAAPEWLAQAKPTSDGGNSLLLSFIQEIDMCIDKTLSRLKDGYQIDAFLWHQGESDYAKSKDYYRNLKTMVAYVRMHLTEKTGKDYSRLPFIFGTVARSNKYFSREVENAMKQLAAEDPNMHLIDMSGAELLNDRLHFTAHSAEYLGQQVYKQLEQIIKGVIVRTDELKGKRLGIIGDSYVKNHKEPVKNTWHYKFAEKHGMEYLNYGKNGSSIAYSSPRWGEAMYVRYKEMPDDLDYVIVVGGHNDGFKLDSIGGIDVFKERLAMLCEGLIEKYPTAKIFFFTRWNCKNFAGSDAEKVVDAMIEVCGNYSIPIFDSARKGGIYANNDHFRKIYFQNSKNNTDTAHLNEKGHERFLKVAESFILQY

Lipase = target: T4, Lipase (Bacteroides thetaiotaomicron, UniProt Q8A3J3); assay: The drug is tested on Bacteroides thetaiotaomicron strain: VPI-5482 for biotransformation. The drug concentrations were measured before and after a 12-h incubation by liquid-chromatography-coupled mass spectrometry (LC–MS); assay type: ADME; design: dose 2 uM; settings: 2 µM
T4 sequence (Q8A3J3 whole entry): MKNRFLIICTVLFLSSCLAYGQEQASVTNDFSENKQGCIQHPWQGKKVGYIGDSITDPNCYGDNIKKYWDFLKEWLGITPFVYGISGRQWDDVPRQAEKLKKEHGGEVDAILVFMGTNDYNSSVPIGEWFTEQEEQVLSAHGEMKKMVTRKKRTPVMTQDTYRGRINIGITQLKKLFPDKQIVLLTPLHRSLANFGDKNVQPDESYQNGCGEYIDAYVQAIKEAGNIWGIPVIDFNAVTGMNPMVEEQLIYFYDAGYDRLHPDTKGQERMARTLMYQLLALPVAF

[15] = as §1, with “MV03” for “MV08”, “SAMEA5537484” for “SAMEA5537489”; assay type: ADME; design: dose 2 uM, timepoint 0, 1, 2, 4, 6, 8, 12, 18, 24 hours; settings: 2 µM
[16] = as §1, with “MV01” for “MV08”, “SAMEA5537482” for “SAMEA5537489”; assay type: ADME; design: dose 2 uM, timepoint 0, 1, 2, 4, 6, 8, 12, 18, 24 hours; settings: 2 µM
[17] = as §1, with “MV22” for “MV08”, “SAMEA5537503” for “SAMEA5537489”; assay type: ADME; design: dose 2 uM, timepoint 0, 1, 2, 4, 6, 8, 12, 18, 24 hours; settings: 2 µM
[18] = as §1, with “MV02” for “MV08”, “SAMEA5537483” for “SAMEA5537489”; assay type: ADME; design: dose 2 uM, timepoint 0, 1, 2, 4, 6, 8, 12, 18, 24 hours; settings: 2 µM

| Bacterial Biotransformation [1] | Bacterial Biotransformation [2] | Bacterial Biotransformation [3] | Bacterial Biotransformation [4] | Bacterial Biotransformation [5] | Bacterial Biotransformation [6] | Bacterial Biotransformation [7] | Bacterial Biotransformation [8] | Bacterial Biotransformation [9] | Bacterial Biotransformation [10] | Bacterial Biotransformation [11] | Bacterial Biotransformation [12] | Bacterial Biotransformation [13] | Bacterial Biotransformation [14] | Bacterial Biotransformation (Lipase) | Bacterial Biotransformation [15] | Bacterial Biotransformation [16] | Bacterial Biotransformation [17] | Bacterial Biotransformation [18] | SMILES |
| --- | --- | --- | --- | --- | --- | --- | --- | --- | --- | --- | --- | --- | --- | --- | --- | --- | --- | --- | --- |
| – | Compound NOT metabolized | Compound NOT metabolized | Compound NOT metabolized | Compound NOT metabolized | Compound NOT metabolized | Compound NOT metabolized | Compound NOT metabolized | Compound NOT metabolized | Compound NOT metabolized | Compound NOT metabolized | Compound NOT metabolized | Compound NOT metabolized | Compound NOT metabolized | Compound NOT metabolized | Compound NOT metabolized | Compound NOT metabolized | Compound NOT metabolized | Compound NOT metabolized | COc1ccc([C@@H]2Sc3ccccc3N(CCN(C)C)C(=O)[C@@H]2OC(C)=O)cc1 [DILTIAZEM] |
| – | Compound metabolized | Compound NOT metabolized | Compound metabolized | Compound metabolized | Compound metabolized | Compound metabolized | Compound metabolized | Compound metabolized | Compound metabolized | Compound metabolized | Compound metabolized | – | Compound metabolized | Compound NOT metabolized | Compound metabolized | Compound metabolized | Compound metabolized | Compound metabolized | CC(=O)OCC(CCn1cnc2cnc(N)nc21)COC(C)=O [FAMCICLOVIR] |
| – | – | – | – | – | – | – | – | – | – | – | Compound NOT metabolized | Compound NOT metabolized | Compound NOT metabolized | Compound NOT metabolized | – | – | – | – | C#C[C@]1(O)CC[C@H]2[C@@H]3CCC4=CC(=O)CC[C@@H]4[C@H]3CC[C@@]21CC [LEVONORGESTREL] |
| – | Compound metabolized | Compound NOT metabolized | Compound metabolized | Compound metabolized | Compound metabolized | Compound metabolized | Compound metabolized | Compound metabolized | Compound metabolized | Compound metabolized | Compound NOT metabolized | Compound NOT metabolized | Compound NOT metabolized | Compound NOT metabolized | Compound metabolized | Compound metabolized | Compound metabolized | Compound metabolized | C#C[C@]1(OC(C)=O)CC[C@H]2[C@@H]3CCC4=CC(=O)CC[C@@H]4[C@H]3CC[C@@]21C [NORETHINDRONE ACETATE] |
| Compound NOT metabolized | – | – | – | – | – | – | – | – | – | – | – | – | – | – | – | – | – | – | C#C[C@]1(OC(C)=O)CC[C@H]2[C@@H]3CCC4=C/C(=N/O)CC[C@@H]4[C@H]3CC[C@@]21CC [NORGESTIMATE] |

Continued, compound first:

| SMILES | Bacterial Biotransformation [1] | Bacterial Biotransformation [2] | Bacterial Biotransformation [3] | Bacterial Biotransformation [4] | Bacterial Biotransformation [5] | Bacterial Biotransformation [6] | Bacterial Biotransformation [7] | Bacterial Biotransformation [8] | Bacterial Biotransformation [9] | Bacterial Biotransformation [10] | Bacterial Biotransformation [11] | Bacterial Biotransformation [12] | Bacterial Biotransformation [13] | Bacterial Biotransformation [14] | Bacterial Biotransformation (Lipase) | Bacterial Biotransformation [15] | Bacterial Biotransformation [16] | Bacterial Biotransformation [17] | Bacterial Biotransformation [18] |
| --- | --- | --- | --- | --- | --- | --- | --- | --- | --- | --- | --- | --- | --- | --- | --- | --- | --- | --- | --- |
| CN1[C@@H]2CC[C@H]1C[C@@H](OC(=O)C(CO)c1ccccc1)C2 (stereo partly specified) [ATROPINE] | Compound NOT metabolized | – | – | – | – | – | – | – | – | – | – | – | – | – | – | – | – | – | – |
| CC(CCc1ccccc1)NCC(O)c1ccc(O)c(C(N)=O)c1 (stereo unspecified) [LABETALOL] | Compound NOT metabolized | – | – | – | – | – | – | – | – | – | – | – | – | – | – | – | – | – | – |
| COC(=O)Nc1nc2ccc(C(=O)c3ccccc3)cc2[nH]1 [MEBENDAZOLE] | Compound NOT metabolized | – | – | – | – | – | – | – | – | – | – | – | – | – | – | – | – | – | – |
| COc1ccc2cc([C@H](C)C(=O)O)ccc2c1 [NAPROXEN] | Compound NOT metabolized | – | – | – | – | – | – | – | – | – | – | – | – | – | – | – | – | – | – |
| N#Cc1ccc2c(c1)N(CCCN1CCC(O)CC1)c1ccccc1S2 [PERICIAZINE] | – | – | – | – | – | – | – | – | – | – | – | Compound NOT metabolized | Compound NOT metabolized | Compound NOT metabolized | Compound NOT metabolized | – | – | – | – |
